Assay results from patent publication US9271991B2, “Trimegestone (TMG) for treatment of preterm birth” (Dignity Health, priority 2010, dated 2016).

Assays:
estrogen receptor = biological target: T1, estrogen receptor (Homo sapiens, UniProt P03372); details: cited from earlier work
T1 sequence (P03372 1-595): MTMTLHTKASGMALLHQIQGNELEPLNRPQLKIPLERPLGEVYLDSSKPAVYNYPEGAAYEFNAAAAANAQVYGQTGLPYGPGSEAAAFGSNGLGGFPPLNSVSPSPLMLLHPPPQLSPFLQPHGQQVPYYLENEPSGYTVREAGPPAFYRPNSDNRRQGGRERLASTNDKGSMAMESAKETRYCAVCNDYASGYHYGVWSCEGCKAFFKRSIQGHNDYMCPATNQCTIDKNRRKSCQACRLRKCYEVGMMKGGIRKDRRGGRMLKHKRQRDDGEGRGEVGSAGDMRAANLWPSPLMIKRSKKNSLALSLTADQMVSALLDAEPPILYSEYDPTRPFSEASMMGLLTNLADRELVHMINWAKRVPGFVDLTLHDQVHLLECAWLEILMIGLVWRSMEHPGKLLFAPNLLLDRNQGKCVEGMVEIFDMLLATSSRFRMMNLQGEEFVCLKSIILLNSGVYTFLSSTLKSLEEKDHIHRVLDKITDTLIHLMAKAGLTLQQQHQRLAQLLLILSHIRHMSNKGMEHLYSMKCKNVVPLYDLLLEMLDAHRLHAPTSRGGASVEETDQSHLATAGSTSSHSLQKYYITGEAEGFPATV

androgen receptor = biological target: T2, androgen receptor (Homo sapiens, UniProt P10275); details: cited from earlier work
T2 sequence (P10275 1-920): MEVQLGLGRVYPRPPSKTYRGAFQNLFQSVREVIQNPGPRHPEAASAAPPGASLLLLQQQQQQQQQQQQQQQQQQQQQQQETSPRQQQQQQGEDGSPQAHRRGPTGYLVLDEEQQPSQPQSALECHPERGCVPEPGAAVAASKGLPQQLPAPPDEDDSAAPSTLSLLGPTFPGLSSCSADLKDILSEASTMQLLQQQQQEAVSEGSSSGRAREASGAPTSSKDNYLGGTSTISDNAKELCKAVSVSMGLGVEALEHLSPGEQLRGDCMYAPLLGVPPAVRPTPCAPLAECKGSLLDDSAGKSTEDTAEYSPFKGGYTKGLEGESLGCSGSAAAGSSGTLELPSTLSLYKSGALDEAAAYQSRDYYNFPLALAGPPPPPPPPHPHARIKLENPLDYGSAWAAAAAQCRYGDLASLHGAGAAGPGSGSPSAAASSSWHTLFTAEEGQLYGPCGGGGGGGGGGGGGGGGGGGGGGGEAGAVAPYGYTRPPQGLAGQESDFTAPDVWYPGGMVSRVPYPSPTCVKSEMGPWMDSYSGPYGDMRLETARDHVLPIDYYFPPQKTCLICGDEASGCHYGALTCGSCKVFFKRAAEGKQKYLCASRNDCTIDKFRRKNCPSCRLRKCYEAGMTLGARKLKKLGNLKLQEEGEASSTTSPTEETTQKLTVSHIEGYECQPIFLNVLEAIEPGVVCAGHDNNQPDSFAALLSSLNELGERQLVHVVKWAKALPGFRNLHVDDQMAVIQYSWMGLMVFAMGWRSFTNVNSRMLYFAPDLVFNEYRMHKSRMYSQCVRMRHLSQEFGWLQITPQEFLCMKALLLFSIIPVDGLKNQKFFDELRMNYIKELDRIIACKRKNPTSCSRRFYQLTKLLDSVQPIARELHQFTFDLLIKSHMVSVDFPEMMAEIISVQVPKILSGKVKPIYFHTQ

[1] = test system: pregnant rats (term delivery); test: Delay of term delivery in pregnant rats; assay type: in vivo, Sprague-Dawley rats
Description: Timed-pregnant Sprague-Dawley rats (200-250 g) from Charles-River Laboratories (Wilmington, Mass., USA) were delivered to our animal care facilities on day 15 of gestation (day 1 being the day when a sperm plug was observed). The animals were housed separately, with free access to food and water and maintained on a constant 12-hour light-dark cycle. Control pregnant rats were spontaneously delivering on day 22 of gestation. The animals were randomly allocated into groups and sacrificed by carbon dioxide inhalation on day 5 postpartum or on day 25 of gestation in the groups with delayed delivery.
Pregnant rats (N=6 per group) were treated, when not otherwise mentioned, from day 20 of gestation until delivery. Single daily treatments were performed at 8 am and twice a day treatments at 8 am and 8 pm. Treatment began daily on day 20 of gestation with vehicles or: a) Topical P4 at various doses (4-30 mg/day, vehicle (v)=fish oil) or topical TMG ([…], v=fish oil; b) Subcutaneous (s.c.) P4 (0.5-4 mg/day, v=sesame oil) or s.c. TMG (0.5-2 mg/day, v=benzyl benzoate (BB) and castor oil (CO), 1:4). Delivery times were observed.
Subcutaneous treatments. All daily injections were by the subcutaneous route (s.c) in […] for the P4 treatments and benzyl benzoate (BB, 1 part): castor oil (CO, 4 parts) for the TMG group. P4 and TMG had dose ranges of 0.5 mg-4 mg per day and 0.5 mg-2 mg per day, respectively. Vehicles only are used in the control groups.
Topical treatments. Topical P4 and TMG (in fish oil and benzyl benzoate:castor oil (1:4), respectively) treatments were applied to the shaved back of the rat twice a day For topical treatments of P4 and TMG, dose range from 2 mg-30 mg per day and 0.005 to 0.5 mg per day, respectively.
Times of delivery of controls and treatment groups were determined as hours after 8 a.m. on day 22 of gestation. […] Delays in delivery less than 80 hours were calculated as less than 100% inhibition. The expulsion of a single pup was noted as delivery. Control groups spontaneously delivered on day 22 of gestation.
The Student's t test was used to compare the treatment groups with its specific control groups to determine the differences in delivery times. A 2-tailed probability value of P<0.05 was considered statistically significant.

[2] = pregnant rats, s.c. single daily treatment from day 20 of gestation

C[C@H](O)C(=O)[C@@]1(C)CC[C@H]2[C@@H]3CCC4=CC(=O)CCC4=C3CC[C@@]21C [TMG, trimegestone]
affinity for the estrogen receptor (estrogen receptor): no measurable affinity
affinity to the androgen receptor (androgen receptor): low affinity
dose for complete block of delivery (80 hour delay, 100 percent inhibition), subcutaneous [1, 2]: 0.5 mg
dose for complete block of delivery, subcutaneous [1, 2]: 0.5 mg/day
lower dose for complete block of term delivery compared to P4, subcutaneous ([1]; pregnant rats, s.c., 0.5 mg TMG vs. 2 mg P4, P<0.05): ca. 4 ×
dose for complete block of delivery, topical ([1]; pregnant rats, topical twice a day from day 20 of gestation): 0.1 mg/day
lower dose for complete block of term delivery compared to P4, topically ([1]; pregnant rats, topical, 0.5 mg TMG vs. 15 mg P4, P<0.05): ca. 30 ×
potency in delaying delivery in rats compared to P4 ([1]; topical and parenteral administration): more potent than P4
